These results are taken from patent US8802597B2, “Herbicidal pyrimidines” (E I du Pont de Nemours and Company, priority 2003, dated 2014).

What all share (test): Test A pre/postemergence
What all share (type): in vivo

Experiment [1] deals with redroot pigweed (Amaranthus retroflexus). As for the experimental part: (§1) Seeds of barnyardgrass (Echinochloa crus-galli), crabgrass (Digitaria sanguinalis), giant foxtail (Setaria faberi), morningglory (Ipomoea spp.), redroot pigweed (Amaranthus retroflexus) and velvetleaf (Abutilon theophrasti) were planted into a blend of loam soil and sand and treated preemergence with a directed soil spray using test chemicals formulated in a non-phytotoxic solvent mixture which included a surfactant. At the same time these species were also treated with postemergence applications of test chemicals formulated in the same manner.
(§2) Plants ranged in height from 2 to 10 cm and were in the 1- to 2-leaf stage for the postemergence treatment. Treated plants and untreated controls were maintained in a greenhouse for approximately ten days, after which time all treated plants were compared to untreated controls and visually evaluated for injury. Plant response ratings, summarized in Table A, are based on a 0 to 100 scale where 0 is no effect and 100 is complete control. A dash (-) response means no test results.

The test system of experiment [2] is giant foxtail (Setaria faberi). As for the experimental part: as §1, §2
Experiment [3] relates to morningglory (Ipomoea spp.). The method, then: as §1, §2
The subject of experiment [4] is barnyardgrass (Echinochloa crus-galli). The method, then: as §1, §2
Experiment [5] has as its system velvetleaf (Abutilon theophrasti). The method, then:
as §1, §2

Experiment [6] concerns crabgrass (Digitaria sanguinalis). The method, then:
as §1, §2

The mark [7] stands for this setting: Postemergence, 125 g ai/ha, 0 to 100 scale (0 no effect, 100 complete control).
The mark [8] stands for this setting: Postemergence, 500 g ai/ha, 0 to 100 scale (0 no effect, 100 complete control).
[9] abbreviates: Preemergence, 125 g ai/ha, 0 to 100 scale where 0 is no effect and 100 is complete control, approximately ten days.
Where [10] appears, read: Preemergence, 500 g ai/ha, 0 to 100 scale where 0 is no effect and 100 is complete control, approximately ten days.

For `COC(=O)c1nc(-c2ccc(C)cc2)nc(N)c1Br` [Compound 82], the “Plant response rating, Pigweed” value in experiment [1] (setting [7]) was found to be 45; in experiment [1] (setting [8]) it was 75; in experiment [1] (setting [9]), 0; in experiment [1] (setting [10]), 70. Moreover, the “Plant response rating, Foxtail, Giant” value in experiment [2] (setting [7]), in experiment [2] (setting [8]), in experiment [2] (setting [9]) and in experiment [2] (setting [10]) was 0 in each case. Further, the “Plant response rating, Morningglory” value in experiment [3] (setting [7]) stood at 20; in experiment [3] (setting [8]), 40; in experiment [3] (setting [9]), 0; in experiment [3] (setting [10]) it was 0. The “Plant response rating, Barnyardgrass” value worked out at 40 in experiment [4] (setting [7]), 50 in experiment [4] (setting [8]), 0 in experiment [4] (setting [9]) and 15 in experiment [4] (setting [10]). For the same compound, the “Plant response rating, Velvetleaf” value in experiment [5] (setting [7]) is given as 90; in experiment [5] (setting [8]) it was 90; in experiment [5] (setting [9]), 5; in experiment [5] (setting [10]) it was 35. The “Plant response rating, Crabgrass” value in experiment [6] (setting [7]), in experiment [6] (setting [8]), in experiment [6] (setting [9]) and in experiment [6] (setting [10]) was 0 throughout.

As for `CC1(C)OCC(COC(=O)c2nc(C3CC3)nc(N)c2Cl)O1` (stereo not drawn) [Compound 147], the “Plant response rating, Pigweed” value is reported as 85 in experiment [1] (setting [7]), 95 in experiment [1] (setting [8]), 80 in experiment [1] (setting [9]) and 90 in experiment [1] (setting [10]). Also, the “Plant response rating, Foxtail, Giant” value in experiment [2] (setting [7]) is reported as 60; in experiment [2] (setting [8]) it was 90; in experiment [2] (setting [9]) it was 40; in experiment [2] (setting [10]) it was 85. Besides, the “Plant response rating, Morningglory” value in experiment [3] (setting [7]) is given as 85; in experiment [3] (setting [8]), 100; in experiment [3] (setting [9]) it was 95; in experiment [3] (setting [10]), 100. In addition, the “Plant response rating, Barnyardgrass” value came to 80 in experiment [4] (setting [7]), 90 in experiment [4] (setting [8]), 70 in experiment [4] (setting [9]) and 85 in experiment [4] (setting [10]). Moreover, the “Plant response rating, Velvetleaf” value in experiment [5] (setting [7]) came to 80; in experiment [5] (setting [8]) it was 100; in experiment [5] (setting [9]) it was 75; in experiment [5] (setting [10]), 95. Further, the “Plant response rating, Crabgrass” value in experiment [6] (setting [7]) turned out to be 25; in experiment [6] (setting [8]) it was 75; in experiment [6] (setting [9]), 70; in experiment [6] (setting [10]) it was 80.

Consider `CCOC(=O)c1nc(-c2cccc(Cl)c2)nc(N)c1Cl` [Compound 100], for which the “Plant response rating, Pigweed” value in experiment [1] (setting [7]) came out at 10; in experiment [1] (setting [8]), 25; in experiment [1] (setting [9]), 20; in experiment [1] (setting [10]), 0. The “Plant response rating, Foxtail, Giant” value in experiment [2] (setting [7]), in experiment [2] (setting [8]), in experiment [2] (setting [9]) and in experiment [2] (setting [10]) was 0 each time. Further, the “Plant response rating, Morningglory” value in experiment [3] (setting [7]) amounted to 40; in experiment [3] (setting [8]), 55; in experiment [3] (setting [9]), 0; in experiment [3] (setting [10]) it was 0. For the same compound, the “Plant response rating, Barnyardgrass” value in experiment [4] (setting [7]) was 0; in experiment [4] (setting [8]) it was 10; in experiment [4] (setting [9]) it was 5; in experiment [4] (setting [10]), 0. For the same compound, the “Plant response rating, Velvetleaf” value in experiment [5] (setting [7]) was 50; in experiment [5] (setting [8]), 70; in experiment [5] (setting [9]), 0; in experiment [5] (setting [10]), 0. Moreover, the “Plant response rating, Crabgrass” value in experiment [6] (setting [7]) came out at 0; in experiment [6] (setting [8]), 0; in experiment [6] (setting [9]), 10; in experiment [6] (setting [10]) it was 0.

For the compound `COC(=O)COC(=O)c1nc(C2CC2)nc(N)c1Cl` [Compound 148], the “Plant response rating, Pigweed” value in experiment [1] (setting [7]) is on record as 75; in experiment [1] (setting [8]) it was 95; in experiment [1] (setting [9]) it was 80; in experiment [1] (setting [10]), 90. In addition, the “Plant response rating, Foxtail, Giant” value in experiment [2] (setting [7]) worked out at 45; in experiment [2] (setting [8]) it was 80; in experiment [2] (setting [9]) it was 40; in experiment [2] (setting [10]), 80. Besides, the “Plant response rating, Morningglory” value in experiment [3] (setting [7]) is recorded as 90; in experiment [3] (setting [8]) it was 100; in experiment [3] (setting [9]), 90; in experiment [3] (setting [10]), 100. Further, the “Plant response rating, Barnyardgrass” value was found to be 68 in experiment [4] (setting [7]), 90 in experiment [4] (setting [8]), 65 in experiment [4] (setting [9]) and 85 in experiment [4] (setting [10]). Besides, the “Plant response rating, Velvetleaf” value in experiment [5] (setting [7]) was 75; in experiment [5] (setting [8]) it was 95; in experiment [5] (setting [9]) it was 80; in experiment [5] (setting [10]) it was 100. In addition, the “Plant response rating, Crabgrass” value in experiment [6] (setting [7]) came out at 10; in experiment [6] (setting [8]), 85; in experiment [6] (setting [9]), 45; in experiment [6] (setting [10]) it was 90.

Regarding `CCCOC(=O)c1nc(-c2ccc(Cl)cc2)nc(N)c1Cl` [Compound 105], the “Plant response rating, Pigweed” value in experiment [1] (setting [7]) amounted to 65; in experiment [1] (setting [8]), 90; in experiment [1] (setting [9]) it was 0; in experiment [1] (setting [10]) it was 0. In addition, the “Plant response rating, Foxtail, Giant” value worked out at 10 in experiment [2] (setting [7]), 10 in experiment [2] (setting [8]), 0 in experiment [2] (setting [9]) and 0 in experiment [2] (setting [10]). The “Plant response rating, Morningglory” value in experiment [3] (setting [7]) amounted to 50; in experiment [3] (setting [8]), 70; in experiment [3] (setting [9]), 0; in experiment [3] (setting [10]) it was 0. In addition, the “Plant response rating, Barnyardgrass” value in experiment [4] (setting [7]) was determined as 10; in experiment [4] (setting [8]), 25; in experiment [4] (setting [9]), 0; in experiment [4] (setting [10]) it was 0. The “Plant response rating, Velvetleaf” value in experiment [5] (setting [7]) came to 85; in experiment [5] (setting [8]), 95; in experiment [5] (setting [9]), 0; in experiment [5] (setting [10]) it was 0. For the same compound, the “Plant response rating, Crabgrass” value in experiment [6] (setting [7]) is recorded as 20; in experiment [6] (setting [8]) it was 45; in experiment [6] (setting [9]) it was 0; in experiment [6] (setting [10]), 0.

Turning to `Nc1nc(C2CC2)nc(C(=O)Oc2ccc(Cl)cc2)c1Cl` [Compound 145], the “Plant response rating, Pigweed” value stood at 80 in experiment [1] (setting [7]), 90 in experiment [1] (setting [8]), 65 in experiment [1] (setting [9]) and 85 in experiment [1] (setting [10]). Also, the “Plant response rating, Foxtail, Giant” value in experiment [2] (setting [7]) stood at 20; in experiment [2] (setting [8]) it was 70; in experiment [2] (setting [9]) it was 0; in experiment [2] (setting [10]), 60. Besides, the “Plant response rating, Morningglory” value in experiment [3] (setting [7]) came out at 80; in experiment [3] (setting [8]), 95; in experiment [3] (setting [9]), 75; in experiment [3] (setting [10]) it was 100. For the same compound, the “Plant response rating, Barnyardgrass” value was 30 in experiment [4] (setting [7]), 60 in experiment [4] (setting [8]), 30 in experiment [4] (setting [9]) and 75 in experiment [4] (setting [10]). Besides, the “Plant response rating, Velvetleaf” value is recorded as 75 in experiment [5] (setting [7]), 95 in experiment [5] (setting [8]), 70 in experiment [5] (setting [9]) and 85 in experiment [5] (setting [10]). The “Plant response rating, Crabgrass” value in experiment [6] (setting [7]) came out at 5; in experiment [6] (setting [8]), 30; in experiment [6] (setting [9]), 65; in experiment [6] (setting [10]) it was 80.
